# Test results: patent US9073820B2, “Pharmaceutical compositions comprising napthamides” (OREGON HEALTH & SCIENCE UNIVERSITY, priority 2011, dated 2015)
# Columns and labels:
# [1] = Maximum tolerated dose of Compound 4 (body weight); assay type: in vivo
# Method: The maximum tolerated dose (MTD) of compound 4 was evaluated in nude mice. In this study 4 groups were established, each with five mice per group. The compound was formulated in a suspension of 5% Tween-80/H2O. Compound 4 was administered orally at dose levels of 120, 60, and 30 mg/kg as QD for five days. The body weight was measured daily for a total of 11 days.
# [2] = system: CREB-mediated gene transcription; assay: CREB reporter (pCRE-RLuc) assay in HEK 293T cells, forskolin-stimulated; assay type: cell-based
# Method: HEK293T cells in a 10-cm plate were transfected with pCRE-RLuc (6.0 μg) using Lipofectamine™ 2000 (Invitrogen, Carlsbad, Calif.) according to manufacturer's protocol. After 3 h, the transfected cells were collected and replated into 96-well plates (1-2×10^4 cells/well). The cells were allowed to attach to the bottom of the wells for overnight, when compounds of different concentrations were added to the cells. Forskolin (final concentration of 10 μM, LC Laboratories, Woburn, Mass.) was added 30 min after the addition of the compounds. The cells were then incubated at 37° C. for 5 h. The media in the wells were removed and the cells were then lysed in 30 μL of 1×Renilla luciferase lysis buffer (Promega, Madison, Wis.). To measure Renilla luciferase activity, five μL of the lysate was combined with 30 μL of benzyl-coelenterazine (Nanolight, Pinetop, Ariz.) solution in PBS (pH 7.4, 10 μg/mL). The sample protein concentration was determined by Dye Reagent Concentrate (Bio-Rad, Hercules, Calif.). The Renilla luciferase activity was normalized to protein content in each well and expressed as relative luciferase unit/μg protein (RLU/μg protein). The IC50 was derived from non-linear regression analysis of the RLU/μg protein-concentration curve in Prism 5.0 (La Jolla, Calif.).
structure (smiles),measurement,setting,value
NCCCOc1cc2ccccc2cc1C(=O)NCCCOc1cc2ccccc2cc1C(=O)Nc1ccc(Cl)cc1O [Compound 4],effect on mouse body weight,"[1]; PO 120, 60, 30 mg/kg QD for five days, body weight 11 days",no different from vehicle
same,tolerability,"[1]; doses as high as 120 mg/kg per os, QD for five days",well-tolerated
same,CREB-mediated gene transcription in HEK 293T cells (in words),[2]; HEK 293T cells,inhibited
same,IC50,"[2]; Homo sapiens, HEK-293T, 5 h, read-out: CREB reporter inhibition (IC50)",2220 ± 380 nM
